Literature values as cited in article PMC3531425, “Low Resolution Solution Structure of HAMLET and the Importance of Its Alpha-Domains in Tumoricidal Activity” (PLoS ONE, 2012).

Test system: tumor cells
Details: molecular range where the complex kills tumor cells; ref [10], [17]; cited from earlier work
Description: The structural basis for HAMLET's tumoricidal activity is not fully understood. […] Since native α-lactalbumin lacks these activities, we hypothesized that the partially unfolded and ... || Recent Far-UV CD spectroscopy studies have shown that the secondary structural features in HAMLET are similar to those in α-lactalbumin [10], which include an alpha1 and alpha2 domain, consisting of the amino acid residues K1-Q39 and L81-L123, respectively, as well as the beta domain, formed by the residues A40-F80 (Fig. 3A–B). […] As described above the alpha2 domain forms a part of the globular domain (residues L81 to W104) as well as the C-terminal tail with t ...

## CCCCCCCC/C=C\CCCCCCCC(=O)O [oleic acid]
  Toxicity of oleic acid alone: not toxic
